Reference: the kinase profiling compilation of Christmann-Franck et al. (2016)
Values joined by “and” are separate entries in the source; they are usually repeats but may differ in a detail not shown here. Equal entries are not always repeated.

Legend:
Test in all cases: radiometric filter-binding kinase assay, Kinase HotSpot
Conditions in all cases: compound 0.5 µM; ATP 10 µM
PRKCA (human) = PRKCA (human) (UniProt P17252)
PRKD2 (human) = PRKD2 (human) (UniProt Q9BZL6)
EPHA4 (human) = EPHA4 (human) (UniProt P54764)
MST4 (human) = MST4 (human) (UniProt Q9P289)
RPS6KA1 KD1 KD2 (human) = RPS6KA1 KD1 KD2 (human) (UniProt Q15418)
IRAK1 (human) = IRAK1 (human) (UniProt P51617)
NEK6 (human) = NEK6 (human) (UniProt Q9HC98)
ROCK1 (human) = ROCK1 (human) (UniProt Q13464)
PIM3 (human) = PIM3 (human) (UniProt Q86V86)
ALK (human) = ALK (human) (UniProt Q9UM73)
JAK3 JH1 JH2 (human) = JAK3 JH1 JH2 (human) (UniProt P52333)
KIT (human) = KIT (human) (UniProt P10721)
SGK2 (human) = SGK2 (human) (UniProt Q9HBY8)
MELK (human) = MELK (human) (UniProt Q14680)
CHUK (human) = CHUK (human) (UniProt O15111)
FGFR4 (human) = FGFR4 (human) (UniProt P22455)
SRPK1 (human) = SRPK1 (human) (UniProt Q96SB4)
MAPK13 (human) = MAPK13 (human) (UniProt O15264)
AURKC (human) = AURKC (human) (UniProt Q9UQB9)
NEK7 (human) = NEK7 (human) (UniProt Q8TDX7)
MAPK1 (human) = MAPK1 (human) (UniProt P28482)
MAPK12 (human) = MAPK12 (human) (UniProt P53778)
MYLK (human) = MYLK (human) (UniProt Q15746)
ERBB2 (human) = ERBB2 (human) (UniProt P04626)
NEK4 (human) = NEK4 (human) (UniProt P51957)
TEC (human) = TEC (human) (UniProt P42680)
PRKCZ (human) = PRKCZ (human) (UniProt Q05513)
RPS6KB2 (human) = RPS6KB2 (human) (UniProt Q9UBS0)
PRKG1 (human) = PRKG1 (human) (UniProt Q13976)
NUAK2 (human) = NUAK2 (human) (UniProt Q9H093)
PASK (human) = PASK (human) (UniProt Q96RG2)
CHEK2 (human) = CHEK2 (human) (UniProt O96017)
CLK3 (human) = CLK3 (human) (UniProt P49761)
PRKCH (human) = PRKCH (human) (UniProt P24723)
CDK6 CCND1 (human) = CDK6 CCND1 (human) (UniProt Q00534+P24385)
MARK1 (human) = MARK1 (human) (UniProt Q9P0L2)
RPS6KB1 (human) = RPS6KB1 (human) (UniProt P23443)
ACVR1 (human) = ACVR1 (human) (UniProt Q04771)
ULK1 (human) = ULK1 (human) (UniProt O75385)
MST1R (human) = MST1R (human) (UniProt Q04912)
MAPK10 (human) = MAPK10 (human) (UniProt P53779)

Sequence of SGK2 (human) (Q9HBY8 whole entry, looked up): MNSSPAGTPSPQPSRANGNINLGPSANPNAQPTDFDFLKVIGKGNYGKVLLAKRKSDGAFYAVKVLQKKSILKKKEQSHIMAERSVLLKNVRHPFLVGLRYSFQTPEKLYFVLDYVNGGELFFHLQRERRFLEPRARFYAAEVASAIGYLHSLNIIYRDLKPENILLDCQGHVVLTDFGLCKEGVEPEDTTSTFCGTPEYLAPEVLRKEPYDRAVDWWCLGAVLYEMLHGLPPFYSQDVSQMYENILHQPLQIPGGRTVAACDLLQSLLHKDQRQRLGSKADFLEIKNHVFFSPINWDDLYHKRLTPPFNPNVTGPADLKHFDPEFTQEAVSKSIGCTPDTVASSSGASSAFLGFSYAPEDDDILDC
Sequence of ACVR1 (human) (Q04771 whole entry, looked up): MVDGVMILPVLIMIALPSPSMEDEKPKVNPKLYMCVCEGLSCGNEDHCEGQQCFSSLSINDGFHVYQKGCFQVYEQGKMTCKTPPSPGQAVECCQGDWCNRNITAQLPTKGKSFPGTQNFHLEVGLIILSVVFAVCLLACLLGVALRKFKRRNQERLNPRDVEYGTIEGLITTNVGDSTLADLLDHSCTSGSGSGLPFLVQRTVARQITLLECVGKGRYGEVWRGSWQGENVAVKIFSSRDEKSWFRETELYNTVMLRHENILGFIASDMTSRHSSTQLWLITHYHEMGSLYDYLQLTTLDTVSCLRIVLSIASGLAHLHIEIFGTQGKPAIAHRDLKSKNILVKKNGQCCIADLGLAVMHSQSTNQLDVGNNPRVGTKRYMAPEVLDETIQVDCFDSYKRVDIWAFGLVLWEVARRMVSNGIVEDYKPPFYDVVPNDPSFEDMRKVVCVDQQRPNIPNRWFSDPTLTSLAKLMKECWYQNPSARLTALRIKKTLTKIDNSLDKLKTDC
Sequence of NEK4 (human) (P51957 whole entry, looked up): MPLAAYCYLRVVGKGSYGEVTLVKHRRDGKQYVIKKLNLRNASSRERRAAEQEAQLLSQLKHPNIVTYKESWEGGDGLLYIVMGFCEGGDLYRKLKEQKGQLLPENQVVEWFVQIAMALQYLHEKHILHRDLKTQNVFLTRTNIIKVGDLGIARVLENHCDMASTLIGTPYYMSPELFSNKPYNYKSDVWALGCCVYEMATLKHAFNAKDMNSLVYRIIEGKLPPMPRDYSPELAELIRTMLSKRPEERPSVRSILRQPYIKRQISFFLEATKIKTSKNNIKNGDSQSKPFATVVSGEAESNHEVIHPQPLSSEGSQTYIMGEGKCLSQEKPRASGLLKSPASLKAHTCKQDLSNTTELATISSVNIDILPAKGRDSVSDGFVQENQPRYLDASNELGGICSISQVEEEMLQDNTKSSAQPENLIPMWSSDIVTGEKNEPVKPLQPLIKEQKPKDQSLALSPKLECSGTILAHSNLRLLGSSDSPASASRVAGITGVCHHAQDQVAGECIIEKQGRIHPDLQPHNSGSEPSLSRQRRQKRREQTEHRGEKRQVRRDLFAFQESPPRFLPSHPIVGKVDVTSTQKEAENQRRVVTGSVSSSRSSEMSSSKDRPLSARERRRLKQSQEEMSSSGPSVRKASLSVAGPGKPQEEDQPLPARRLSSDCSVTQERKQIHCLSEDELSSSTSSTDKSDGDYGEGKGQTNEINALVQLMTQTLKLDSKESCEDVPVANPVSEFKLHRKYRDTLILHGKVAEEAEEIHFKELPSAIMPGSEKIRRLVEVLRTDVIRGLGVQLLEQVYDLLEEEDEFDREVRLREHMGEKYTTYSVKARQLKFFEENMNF
Sequence of CLK3 (human) (P49761 whole entry, looked up): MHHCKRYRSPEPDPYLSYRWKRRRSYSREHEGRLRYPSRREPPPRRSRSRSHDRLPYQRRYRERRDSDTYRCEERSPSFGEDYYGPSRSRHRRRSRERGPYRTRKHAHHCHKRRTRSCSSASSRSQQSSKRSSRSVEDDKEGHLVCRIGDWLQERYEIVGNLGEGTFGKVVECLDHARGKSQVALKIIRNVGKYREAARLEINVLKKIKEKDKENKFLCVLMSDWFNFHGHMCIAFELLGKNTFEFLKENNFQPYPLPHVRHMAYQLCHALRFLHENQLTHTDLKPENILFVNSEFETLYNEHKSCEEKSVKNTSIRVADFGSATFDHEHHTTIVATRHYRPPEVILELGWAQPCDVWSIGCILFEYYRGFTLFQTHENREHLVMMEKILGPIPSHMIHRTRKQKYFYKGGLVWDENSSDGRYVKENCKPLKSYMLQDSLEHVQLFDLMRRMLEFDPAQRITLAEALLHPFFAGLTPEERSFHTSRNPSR
Sequence of NEK6 (human) (Q9HC98 whole entry, looked up): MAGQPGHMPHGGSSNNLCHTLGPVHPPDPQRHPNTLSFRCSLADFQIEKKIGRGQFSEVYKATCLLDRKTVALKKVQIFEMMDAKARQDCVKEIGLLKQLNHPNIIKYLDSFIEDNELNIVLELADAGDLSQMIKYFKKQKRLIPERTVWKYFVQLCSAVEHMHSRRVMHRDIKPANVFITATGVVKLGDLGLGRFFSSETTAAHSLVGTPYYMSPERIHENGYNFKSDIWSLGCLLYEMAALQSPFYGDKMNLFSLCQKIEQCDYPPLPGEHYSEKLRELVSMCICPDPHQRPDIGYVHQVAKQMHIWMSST
Sequence of RPS6KB2 (human) (Q9UBS0 whole entry, looked up): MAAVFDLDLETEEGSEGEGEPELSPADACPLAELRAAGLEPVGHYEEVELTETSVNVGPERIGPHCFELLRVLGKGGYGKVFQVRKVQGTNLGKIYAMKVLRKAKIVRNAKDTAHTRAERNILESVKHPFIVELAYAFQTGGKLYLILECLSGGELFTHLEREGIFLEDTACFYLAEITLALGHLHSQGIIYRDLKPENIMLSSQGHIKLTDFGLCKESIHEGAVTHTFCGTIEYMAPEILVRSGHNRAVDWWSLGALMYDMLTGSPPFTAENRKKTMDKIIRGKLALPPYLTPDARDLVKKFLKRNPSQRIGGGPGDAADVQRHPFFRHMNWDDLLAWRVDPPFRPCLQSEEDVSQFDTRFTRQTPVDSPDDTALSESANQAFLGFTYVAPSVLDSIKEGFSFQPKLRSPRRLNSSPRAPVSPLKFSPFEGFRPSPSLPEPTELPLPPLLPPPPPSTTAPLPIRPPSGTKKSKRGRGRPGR
Sequence of RPS6KB1 (human) (P23443 whole entry, looked up): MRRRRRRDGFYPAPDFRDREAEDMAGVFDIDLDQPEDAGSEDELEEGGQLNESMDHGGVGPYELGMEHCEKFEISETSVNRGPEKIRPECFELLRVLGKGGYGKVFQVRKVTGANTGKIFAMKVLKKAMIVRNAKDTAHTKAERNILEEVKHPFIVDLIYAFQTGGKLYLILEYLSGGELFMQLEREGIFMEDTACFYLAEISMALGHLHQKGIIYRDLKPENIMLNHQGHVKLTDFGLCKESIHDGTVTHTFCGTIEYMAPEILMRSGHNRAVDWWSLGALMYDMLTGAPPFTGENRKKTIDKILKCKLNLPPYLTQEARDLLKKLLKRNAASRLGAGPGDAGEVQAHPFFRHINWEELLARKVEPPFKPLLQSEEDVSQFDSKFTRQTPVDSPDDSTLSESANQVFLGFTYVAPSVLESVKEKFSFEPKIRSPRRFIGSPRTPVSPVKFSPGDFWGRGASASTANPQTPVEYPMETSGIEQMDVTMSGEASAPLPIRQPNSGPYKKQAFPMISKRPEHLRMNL
Sequence of CHEK2 (human) (O96017 whole entry, looked up): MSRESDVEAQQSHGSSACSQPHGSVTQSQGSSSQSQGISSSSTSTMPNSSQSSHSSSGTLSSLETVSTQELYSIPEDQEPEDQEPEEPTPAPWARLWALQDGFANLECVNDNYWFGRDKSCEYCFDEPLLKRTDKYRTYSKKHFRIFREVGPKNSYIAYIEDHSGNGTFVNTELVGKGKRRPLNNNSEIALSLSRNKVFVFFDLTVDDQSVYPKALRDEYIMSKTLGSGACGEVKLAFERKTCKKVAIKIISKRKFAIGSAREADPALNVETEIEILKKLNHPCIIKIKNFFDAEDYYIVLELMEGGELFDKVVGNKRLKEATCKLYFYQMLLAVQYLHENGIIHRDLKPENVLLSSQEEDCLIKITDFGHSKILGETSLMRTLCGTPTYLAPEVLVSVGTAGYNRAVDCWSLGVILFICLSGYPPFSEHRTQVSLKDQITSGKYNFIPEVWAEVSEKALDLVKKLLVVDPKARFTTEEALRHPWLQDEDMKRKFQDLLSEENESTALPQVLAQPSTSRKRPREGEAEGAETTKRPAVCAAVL
Sequence of MAPK1 (human) (P28482 whole entry, looked up): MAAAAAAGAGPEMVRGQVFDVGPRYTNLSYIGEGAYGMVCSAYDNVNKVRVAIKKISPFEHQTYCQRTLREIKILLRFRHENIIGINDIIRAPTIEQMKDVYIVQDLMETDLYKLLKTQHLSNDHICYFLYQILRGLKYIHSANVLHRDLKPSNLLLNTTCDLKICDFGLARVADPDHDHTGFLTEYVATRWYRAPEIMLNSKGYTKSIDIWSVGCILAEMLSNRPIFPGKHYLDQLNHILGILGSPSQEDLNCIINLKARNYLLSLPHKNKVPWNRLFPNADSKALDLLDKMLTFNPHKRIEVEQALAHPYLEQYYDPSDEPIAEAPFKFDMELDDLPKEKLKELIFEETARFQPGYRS

| SMILES | residual activity (EPHA4 (human)) [%] | residual activity (MST4 (human)) [%] | residual activity (RPS6KA1 KD1 KD2 (human)) [%] | residual activity (IRAK1 (human)) [%] | residual activity (NEK6 (human)) [%] | residual activity (ROCK1 (human)) [%] | residual activity (PIM3 (human)) [%] | residual activity (ALK (human)) [%] | residual activity (SGK2 (human)) [%] | residual activity (MELK (human)) [%] | residual activity (FGFR4 (human)) [%] | residual activity (SRPK1 (human)) [%] | residual activity (AURKC (human)) [%] | residual activity (MAPK1 (human)) [%] | residual activity (MYLK (human)) [%] | residual activity (NEK4 (human)) [%] | residual activity (TEC (human)) [%] | residual activity (PRKCZ (human)) [%] | residual activity (RPS6KB2 (human)) [%] | residual activity (PRKG1 (human)) | other results |
| --- | --- | --- | --- | --- | --- | --- | --- | --- | --- | --- | --- | --- | --- | --- | --- | --- | --- | --- | --- | --- | --- |
| COc1cc(Nc2c(C#N)cnc3cc(OCCCN4CCN(C)CC4)c(OC)cc23)c(Cl)cc1Cl | 27 | 5.9 | 80.4 | 91.3 | 85.3 | 105 | 97.7 | 66 | 103 | 25.8 | 94.1 | 98.5 | 82.1 | 93.7 | 72 | 32.6 | 96.1 | 89.7 | 107 | 85.5% and 94.9% | residual activity (PRKCA (human)): 49.5%; residual activity (PRKD2 (human)): 35.5%; residual activity (JAK3 JH1 JH2 (human)): 88.5%; residual activity (KIT (human)): 93.6%; residual activity (CHUK (human)): 98.1%; residual activity (MAPK13 (human)): 91.2%; residual activity (NEK7 (human)): 94.6%; residual activity (MAPK12 (human)): 99.9%; residual activity (ERBB2 (human)): 32.9%; residual activity (NUAK2 (human)): 59.5%; residual activity (PASK (human)): 109%; residual activity (CHEK2 (human)): 21.7%; residual activity (CLK3 (human)): 94.9%; residual activity (PRKCH (human)): 102%; residual activity (CDK6 CCND1 (human)): 99.4%; residual activity (MARK1 (human)): 109%; residual activity (RPS6KB1 (human)): 87.7%; residual activity (ACVR1 (human)): 93.3%; residual activity (ULK1 (human)): 79.1% |
| C[C@@H]1CCN(C(=O)CC#N)C[C@@H]1N(C)c1ncnc2[nH]ccc12 | 99.1 | 105 | 90.9 | 93.9 | 83.2 | 90.1 | 96.5 | 107 | 104 | 79.4 | 94.3 | 99.8 | 85.3 | 88.6 | 89.9 | 96 | 95.4 | 91.7 | 100 | 82% and 87.8% | residual activity (PRKCA (human)): 78.7%; residual activity (KIT (human)): 98.9%; residual activity (CHUK (human)): 95%; residual activity (ERBB2 (human)): 109%; residual activity (MST1R (human)): 102%; residual activity (NUAK2 (human)): 80.3%; residual activity (PASK (human)): 105%; residual activity (CHEK2 (human)): 104%; residual activity (CLK3 (human)): 106%; residual activity (PRKCH (human)): 100%; residual activity (CDK6 CCND1 (human)): 96.5%; residual activity (MARK1 (human)): 119%; residual activity (MAPK10 (human)): 100%; residual activity (RPS6KB1 (human)): 103%; residual activity (ACVR1 (human)): 104%; residual activity (ULK1 (human)): 83% |
| CO[C@@H]1[C@H](N(C)C(=O)c2ccccc2)C[C@H]2O[C@]1(C)n1c3ccccc3c3c4c(c5c6ccccc6n2c5c31)C(=O)NC4 | 96.9 | 23.8 | 0.432 | 86.3 | 110 | 85.3 | 60.8 | 49.2 | 99 | 4.87 | 84.2 | 97.1 | 12 | 88.8 | 27.3 | 97.6 | 106 | 98.6 | 55.9 | 18.8% and 8.37% | residual activity (PRKD2 (human)): 62.9%; residual activity (JAK3 JH1 JH2 (human)): 0.781%; residual activity (MAPK13 (human)): 104%; residual activity (NEK7 (human)): 101%; residual activity (MAPK12 (human)): 95.8%; residual activity (MST1R (human)): 101%; residual activity (NUAK2 (human)): 26.2%; residual activity (PASK (human)): 90.9%; residual activity (CHEK2 (human)): 85.1%; residual activity (CLK3 (human)): 89.6%; residual activity (PRKCH (human)): 20.4%; residual activity (CDK6 CCND1 (human)): 96.5%; residual activity (MARK1 (human)): 4.09%; residual activity (MAPK10 (human)): 98.9%; residual activity (RPS6KB1 (human)): 19.4%; residual activity (ACVR1 (human)): 95.5%; residual activity (ULK1 (human)): 99.2% |
